Measured values from PMC12218921, “An adaptive peptide-binding site in ubiquitin receptor hRpn13 revealed by structural studies” (Nature Communications, 2025).
No end group written: not given here.

Tests used:
[1] = molecular target: T1, hRpn13_ΔMTT (Homo sapiens, UniProt Q16186); experiment: 1H-15N HSQC NMR titration / chemical shift perturbation (CSP), 0.1 mM 15N-labeled hRpn13_ΔMTT with unlabeled peptide; type: binding
T1 construct: recombinant plasmid of hRpn13 Pru (1–150) cloned into the pRSET vector; GST (N, cleaved yes); residual Gly-Ser (^cG-^dS) left after cleavage; made in house; host or cells: Escherichia coli BL21 (DE3); pGEX-4T-1 plasmid synthesized by GenScript (Addgene 237412)
T1 sequence (Q16186 4-150, stated change not applied): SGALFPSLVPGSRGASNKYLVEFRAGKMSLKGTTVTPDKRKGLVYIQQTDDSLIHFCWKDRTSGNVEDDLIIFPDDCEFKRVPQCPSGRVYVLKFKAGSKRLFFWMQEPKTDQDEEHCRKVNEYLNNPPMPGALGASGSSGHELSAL
Method: The similar spectral effects by adding ENT or ENT_M1S is readily apparent by quantifying and plotting the shifting across the Pru amino acid sequence (Supplementary Fig. 10b, c).
All ^1H-^15N HSQC experiments were acquired on samples dissolved in NMR buffer (20 mM sodium phosphate, pH 6.5, 50 mM NaCl, 1 mM TCEP, 10% D2O) unless specified, in which case 2 mM DTT replaced TCEP. The samples were purified in DTT-containing buffer and then exchanged into NMR buffer by using Zeba Protein Desalting columns (Thermo Fisher Scientific). The pH was measured and adjusted to 6.5. All NMR experiments were performed at 25 °C on a Bruker Advance 600 MHz spectrometer equipped with a cryogenically cooled probe. The data were processed by NMRpipe[46] (version 11.5) and spectra visualized and analyzed with NMR-FAM-SPARKY[47] (version 3.190) by using previous chemical shift assignments[12],[23] and NMRbox[48]. The amide nitrogen and hydrogen chemical shift perturbations (CSP) were mapped for each amino acid according to Eq. 1.1 CSP=0.2ΔδN2+ΔδH2
ΔδH, change in amide proton value (in parts per million); ΔδN, change in amide nitrogen value (in parts per million).
Supplementary Figure 9: 2D NMR experiments indicate ENT binding to hRpn13 Pru. a) ^1H-^15N HSQC spectrum of 0.1 mM ^15N-labeled hRpn13 (1-150, black) or hRpn13_ΔMTT (green). Select residues are labeled with amino acids in the Pru helix, proteasome binding region, and termini in blue, purple, and orange, respectively. Arrows indicate direction of shifting. b, c) ^1H-^15N HSQC spectra of 0.1 mM of ^15N-labeled hRpn13_ΔMTT alone (black) or with ENT present at equimolar (red), 2-fold (orange), 5-fold (yellow), 10-fold (green), 15-fold (blue), or 20-fold (purple) molar excess. […] All spectra were acquired at 600 MHz and 25°C in 20 mM sodium phosphate, pH 6.5, 100 mM NaCl, 1 mM TCEP, 10% D2O. ppm, part per million.

[2] = molecular target: T1, hRpn13_ΔMTT; experiment: Competition assay by fluorescence polarization (unlabeled peptide vs TAMRA-hRpn2 (940–953)); type: binding

Q: Which results are given for GPGSMTT [ENT]?
A: HSQC signal shifting of hRpn13_ΔMTT ([1]; 100 μM 15N-hRpn13_ΔMTT, peptide up to 20-fold molar excess, pH 6.5, 25 °C, 600 MHz): small concentration-dependent shifting of the same (T114, D117-E119, C121) and additional (W61, M109, H120, H145) hRpn13 amide signals; strength of binding to hRpn13 Pru (by HSQC) ([1]; 100 μM 15N-hRpn13_ΔMTT, varying molar ratios): weak interaction between ENT and hRpn13 Pru; CSP A6 ([1]; 20-fold molar excess peptide): 0.001342; CSP A28 ([1]; 20-fold molar excess peptide): 0.00743; CSP A100 ([1]; 20-fold molar excess peptide): 0.002049; CSP A136 ([1]; 20-fold molar excess peptide): 0.002049; CSP A139 ([1]; 20-fold molar excess peptide): 0.0004472; CSP A149 ([1]; 20-fold molar excess peptide): 0.003493; CSP C60 ([1]; 20-fold molar excess peptide): 0.003715; CSP C80 ([1]; 20-fold molar excess peptide): 0.002049; CSP C88 ([1]; 20-fold molar excess peptide): 0.002449; CSP C121 ([1]; 20-fold molar excess peptide): 0.02471; CSP D41 ([1]; 20-fold molar excess peptide): 0; CSP D53 ([1]; 20-fold molar excess peptide): 0.002049; CSP D54 ([1]; 20-fold molar excess peptide): 0.001789; CSP D63 ([1]; 20-fold molar excess peptide): 0.004494; CSP D71 ([1]; 20-fold molar excess peptide): 0.007; CSP D72 ([1]; 20-fold molar excess peptide): 0.007759; CSP D78 ([1]; 20-fold molar excess peptide): 0.005899; CSP D79 ([1]; 20-fold molar excess peptide): 0.002864; CSP D115 ([1]; 20-fold molar excess peptide): 0.009859; CSP D117 ([1]; 20-fold molar excess peptide): 0.033; CSP E25 ([1]; 20-fold molar excess peptide): 0.009859; CSP E70 ([1]; 20-fold molar excess peptide): 0.005459; CSP E81 ([1]; 20-fold molar excess peptide): 0.001342; CSP E111 ([1]; 20-fold molar excess peptide): 0.01601; CSP E118 ([1]; 20-fold molar excess peptide): 0.06429; CSP E119 ([1]; 20-fold molar excess peptide): 0.03311; CSP E146 ([1]; 20-fold molar excess peptide): 0.01203; CSP F8 ([1]; 20-fold molar excess peptide): 0.002049; CSP F26 ([1]; 20-fold molar excess peptide): 0.0264; CSP F59 ([1]; 20-fold molar excess peptide): 0.002864; CSP F76 ([1]; 20-fold molar excess peptide): 0.007603; CSP F82 ([1]; 20-fold molar excess peptide): 0.004219; CSP F98 ([1]; 20-fold molar excess peptide): 0.009391; CSP F106 ([1]; 20-fold molar excess peptide): 0.002864; CSP F107 ([1]; 20-fold molar excess peptide): 0.001789; CSP G5 ([1]; 20-fold molar excess peptide): 0; CSP G17 ([1]; 20-fold molar excess peptide): 0.002683; CSP G29 ([1]; 20-fold molar excess peptide): 0.003286; CSP G45 ([1]; 20-fold molar excess peptide): 0.006148; CSP G67 ([1]; 20-fold molar excess peptide): 0.001342; CSP G91 ([1]; 20-fold molar excess peptide): 0.002049; CSP G101 ([1]; 20-fold molar excess peptide): 0.004669; CSP G135 ([1]; 20-fold molar excess peptide): 0.002449; CSP G138 ([1]; 20-fold molar excess peptide): 0.001095; CSP G141 ([1]; 20-fold molar excess peptide): 0.002049; CSP G144 ([1]; 20-fold molar excess peptide): 0.001342; CSP H58 ([1]; 20-fold molar excess peptide): 0.007057; CSP H120 ([1]; 20-fold molar excess peptide): 0.07737; CSP H145 ([1]; 20-fold molar excess peptide): 0.06834; CSP I49 ([1]; 20-fold molar excess peptide): 0.002408; CSP I57 ([1]; 20-fold molar excess peptide): 0.004025; CSP I75 ([1]; 20-fold molar excess peptide): 0.001673; CSP K21 ([1]; 20-fold molar excess peptide): 0.0004472; CSP K30 ([1]; 20-fold molar excess peptide): 0.01021; CSP K34 ([1]; 20-fold molar excess peptide): 0.002408; CSP K42 ([1]; 20-fold molar excess peptide): 0.00502; CSP K62 ([1]; 20-fold molar excess peptide): 0.001342; CSP K83 ([1]; 20-fold molar excess peptide): 0.005367; CSP K97 ([1]; 20-fold molar excess peptide): 0.002449; CSP K99 ([1]; 20-fold molar excess peptide): 0.001095; CSP K103 ([1]; 20-fold molar excess peptide): 0.003131; CSP K113 ([1]; 20-fold molar excess peptide): 0.008729; CSP K123 ([1]; 20-fold molar excess peptide): 0.01565; CSP L7 ([1]; 20-fold molar excess peptide): 0.002408; CSP L11 ([1]; 20-fold molar excess peptide): 0.001342; CSP L23 ([1]; 20-fold molar excess peptide): 0.004382; CSP L33 ([1]; 20-fold molar excess peptide): 0.002; CSP L46 ([1]; 20-fold molar excess peptide): 0.004899; CSP L56 ([1]; 20-fold molar excess peptide): 0.002236; CSP L73 ([1]; 20-fold molar excess peptide): 0.003493; CSP L96 ([1]; 20-fold molar excess peptide): 0.001095; CSP L105 ([1]; 20-fold molar excess peptide): 0.006017; CSP L128 ([1]; 20-fold molar excess peptide): 0.003; CSP L137 ([1]; 20-fold molar excess peptide): 0.002449; CSP L147 ([1]; 20-fold molar excess peptide): 0.01114; CSP L150 ([1]; 20-fold molar excess peptide): 0.003493; CSP M31 ([1]; 20-fold molar excess peptide): 0.003131; CSP M109 ([1]; 20-fold molar excess peptide): 0.01978; CSP M133 ([1]; 20-fold molar excess peptide): 0.001095; CSP N20 ([1]; 20-fold molar excess peptide): 0.002049; CSP N68 ([1]; 20-fold molar excess peptide): 0.001095; CSP N125 ([1]; 20-fold molar excess peptide): 0.002049; CSP N129 ([1]; 20-fold molar excess peptide): 0.004025; CSP N130 ([1]; 20-fold molar excess peptide): 0.001673; CSP Q50 ([1]; 20-fold molar excess peptide): 0.003742; CSP Q51 ([1]; 20-fold molar excess peptide): 0.004025; CSP Q87 ([1]; 20-fold molar excess peptide): 0.003742; CSP R16 ([1]; 20-fold molar excess peptide): 0.001095; CSP R27 ([1]; 20-fold molar excess peptide): 0.001095; CSP R43 ([1]; 20-fold molar excess peptide): 0.002191; CSP R64 ([1]; 20-fold molar excess peptide): 0.004025; CSP R92 backbone ([1]; 20-fold molar excess peptide): 0.003131; CSP R92 sidechain ([1]; 20-fold molar excess peptide): 0.016; CSP R104 ([1]; 20-fold molar excess peptide): 0.008112; CSP R122 ([1]; 20-fold molar excess peptide): 0.01435; CSP S4 ([1]; 20-fold molar excess peptide): 0.009602; CSP S10 ([1]; 20-fold molar excess peptide): 0.001342; CSP S15 ([1]; 20-fold molar excess peptide): 0.001342; CSP S19 ([1]; 20-fold molar excess peptide): 0.001342; CSP S32 ([1]; 20-fold molar excess peptide): 0.001342; CSP S55 ([1]; 20-fold molar excess peptide): 0.002864; CSP S66 ([1]; 20-fold molar excess peptide): 0.004472; CSP S102 ([1]; 20-fold molar excess peptide): 0.002049; CSP S140 ([1]; 20-fold molar excess peptide): 0.001342; CSP S142 ([1]; 20-fold molar excess peptide): 0.002049; CSP S143 ([1]; 20-fold molar excess peptide): 0.002236; CSP S148 ([1]; 20-fold molar excess peptide): 0.003286; CSP T36 ([1]; 20-fold molar excess peptide): 0.00882; CSP T37 ([1]; 20-fold molar excess peptide): 0.003578; CSP T39 ([1]; 20-fold molar excess peptide): 0.001342; CSP T52 ([1]; 20-fold molar excess peptide): 0; CSP T65 ([1]; 20-fold molar excess peptide): 0.001342; CSP T114 ([1]; 20-fold molar excess peptide): 0.02379; CSP V12 ([1]; 20-fold molar excess peptide): 0.002049; CSP V24 ([1]; 20-fold molar excess peptide): 0.003715; CSP V47 ([1]; 20-fold molar excess peptide): 0.008497; CSP V69 ([1]; 20-fold molar excess peptide): 0.004494; CSP V93 ([1]; 20-fold molar excess peptide): 0.004494; CSP V95 ([1]; 20-fold molar excess peptide): 0.002683; CSP V124 ([1]; 20-fold molar excess peptide): 0.0139; CSP W61 ([1]; 20-fold molar excess peptide): 0.0278; CSP W108 ([1]; 20-fold molar excess peptide): 0.005899; CSP Y22 ([1]; 20-fold molar excess peptide): 0.01048; CSP Y48 ([1]; 20-fold molar excess peptide): 0.003715; CSP Y94 ([1]; 20-fold molar excess peptide): 0.00502; CSP Y127 ([1]; 20-fold molar excess peptide): 0.00531; effect at Pru-B-binding surface (HSQC) ([1]; e.g. F76 and D78 amide signals): No effects were observed at the Pru-B-binding surface; concentration required to completely decrease the FP to background levels ([2]; 80 nM hRpn13_ΔMTT, 10 nM TAMRA-hRpn2 (940–953), N = 6): > 3 mM; concentrations at which peptides can displace hRpn2 from hRpn13 ([2]; FP competition): > 0.5 mM; IC50 ([2]; peer review file, FP competition with TAMRA-hRpn2 (940-953), read-out: IC50 (FP decreased to background levels)): > 3 mM
